According to PubChem BioAssay (NCI):
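A five-concentration, 48-hour dose response in 96-well plates underlies each endpoint, interpolated linearly between surrounding concentrations. At the GI50, growth is halved. Definition used: TGI = concentration required for complete inhibition of growth.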

Experiments:
Assay in all cases: growth of human tumour cells (NCI), 48 h
SW-620 colon = test system: SW-620 colon
M14 melanoma = test system: M14 melanoma
NCI-H23 lung = test system: NCI-H23 lung
OVCAR-3 ovarian = test system: OVCAR-3 ovarian
OVCAR-4 ovarian = test system: OVCAR-4 ovarian
K-562 leukemia = test system: K-562 leukemia
UO-31 renal = test system: UO-31 renal
HL-60(TB) leukemia = test system: HL-60(TB) leukemia
HCT-15 colon = test system: HCT-15 colon
RXF 393 renal = test system: RXF 393 renal

Row | SMILES | TGI (SW-620 colon) | TGI (M14 melanoma) | TGI (NCI-H23 lung) | TGI (OVCAR-3 ovarian) | TGI (OVCAR-4 ovarian) | TGI (K-562 leukemia) | TGI (UO-31 renal) | TGI (HL-60(TB) leukemia) | TGI (HCT-15 colon) | TGI (RXF 393 renal) | GI50 (RXF 393 renal) | GI50 (SW-620 colon) | GI50 (M14 melanoma) | GI50 (NCI-H23 lung) | GI50 (K-562 leukemia) | GI50 (UO-31 renal) | GI50 (HL-60(TB) leukemia) | GI50 (HCT-15 colon) | GI50 (OVCAR-3 ovarian) | GI50 (OVCAR-4 ovarian)
1 | CCN(CC)CCn1c2c3ccccc3ccc2c2oc(=O)c3ccccc3c21 | > 100 µM | > 100 µM | > 100 µM | > 100 µM | 96.5 µM | > 100 µM | > 100 µM | > 100 µM | > 100 µM |  |  |  |  |  |  |  |  |  |  | 
2 | COP1(=O)CC2C(Cl)(Cl)C2(C)C1 (stereo not given) | > 100 µM | > 100 µM | > 100 µM | > 100 µM | > 100 µM | > 100 µM |  | > 100 µM |  | > 100 µM |  |  |  |  |  |  |  |  |  | 
3 | S=C(Nc1ccc(-c2nc3ccccc3[nH]2)cc1)NC1CCCCC1 |  | 53.3 µM | 68.3 µM | 43.8 µM |  |  | 71.6 µM |  | 37.9 µM | 74 µM | 15.5 µM | 31.6 µM | 22.6 µM | 23.2 µM | 31.5 µM | 21.3 µM | 46.9 µM | 16.2 µM |  | 
4 | N#CC(C#N)=C(N)/C(C#N)=C\c1ccnc2ccccc12 | 17.2 µM | > 100 µM | 40.5 µM | > 100 µM | > 100 µM | 26.1 µM | 40.9 µM | 4.69 µM |  | 35.3 µM |  |  |  |  |  |  |  |  |  | 
5 | Cc1cc2c(CC(=O)O)[nH]nc2c(C(=O)O)c1C | > 100 µM |  | > 100 µM | > 100 µM |  |  | > 100 µM | > 100 µM | > 100 µM | > 100 µM |  |  |  |  |  |  |  |  |  | 
6 | Oc1ccc(Br)cc1Sc1cc(Br)ccc1O | 25.3 µM | 27.9 µM | 11.8 µM | 18 µM | 18.1 µM | 32 µM | 19.6 µM | 25 µM | 22 µM |  |  | 9.29 µM | 10.7 µM | 3.14 µM | 5.12 µM | 5 µM | 4.98 µM | 5.93 µM | 4.98 µM | 4.72 µM
7 | Cc1cc2nc3c(=O)n(C)c(=O)nc-3n(-c3ccc(Cl)cc3)c2cc1C | 20.5 µM | 13.9 µM | 26.2 µM | 8.81 µM | 19.8 µM | 34.7 µM | 52.6 µM | 24.3 µM | 21.9 µM |  |  |  |  |  |  |  |  |  |  | 
8 | Cc1cc2nc3c(C(OC4OC(CO)C(O)C(O)C4O)C(O)CO)nn(-c4ccccc4)c3nc2cc1C (stereo not given) |  | > 100 µM | > 100 µM | > 100 µM | > 100 µM | > 100 µM | > 100 µM |  | > 100 µM | > 100 µM |  |  |  |  |  |  |  |  |  | 
9 | CC(=O)CC1CCC(=O)CCC(=O)OC(CC(C)=O)CCC(=O)CCC(=O)O1 (stereo not given) | > 100 µM | > 100 µM | > 100 µM | > 100 µM | > 100 µM | > 100 µM |  | > 100 µM | > 100 µM | > 100 µM |  |  |  |  |  |  |  |  |  | 
10 | O=C(Nc1ccc(Cl)cc1)Nc1ccc(Cl)c(Cl)c1 | > 100 µM | > 100 µM | > 100 µM | > 100 µM | > 100 µM | > 100 µM | 10.1 µM | 7.69 µM | 62.5 µM |  |  | 3.95 µM | 4.71 µM | 3.34 µM | 2.63 µM | 2.32 µM | 2.84 µM | 2.92 µM | 3.31 µM | 3.88 µM
11 | CC1=C2C(O)C(C(C)CO)C(O)CC2(C)C(O)CC1 (stereo not given) | > 100 µM | > 100 µM |  | > 100 µM | > 100 µM |  | > 100 µM | > 100 µM | > 100 µM | > 100 µM |  |  |  |  |  |  |  |  |  | 
12 | c1ccc2c(c1)[I+]c1ccccc1-2 | > 50 µM |  | > 50 µM | > 50 µM | > 50 µM | > 50 µM | > 50 µM | > 50 µM | > 50 µM | > 50 µM | > 50 µM | > 50 µM |  | 22.9 µM | 28.2 µM | > 50 µM | > 50 µM | > 50 µM | > 50 µM | 21.6 µM
13 | COC1=CC23C=CC1[C@@H](c1ccccc1)C2=C(C)C(=O)N3C(=O)NC1CCCCC1 (stereo not given in full) | 47.8 µM | 38.8 µM | 57.5 µM | 59.8 µM |  | > 100 µM | 54.7 µM | > 100 µM | 29.1 µM | 14.8 µM |  |  |  |  |  |  |  |  |  | 
14 | c1cnc2c(c1)-n1cccc1C1(CCSCC1)NN2 | > 100 µM | > 100 µM |  | > 100 µM | > 100 µM | > 100 µM | 94.1 µM | > 100 µM | > 100 µM |  |  |  |  |  |  |  |  |  |  | 
15 | O=[N+]([O-])c1c(/C=N/Nc2ccccc2)oc(-c2ccc3c(c2)OCO3)c1-c1ccc2c(c1)OCO2 | > 100 µM | > 100 µM | > 100 µM | 98.2 µM | > 100 µM | 14.5 µM |  | 33.5 µM |  | > 100 µM |  |  |  |  |  |  |  |  |  | 
16 | CC1(C)C(=O)N(c2ccccc2)C(=O)N1c1nc2ccccc2[nH]1 | 36.3 µM | > 100 µM | > 100 µM | > 100 µM |  | > 100 µM | > 100 µM | > 100 µM | > 100 µM | > 100 µM |  |  |  |  |  |  |  |  |  | 
17 | NC(N)=N/N=C(/c1nc2ccc([N+](=O)[O-])cc2[nH]c1=O)C(O)c1ccco1 (stereo not given) | > 100 µM | > 100 µM | > 100 µM |  | > 100 µM | > 100 µM | > 100 µM | > 100 µM | > 100 µM | > 100 µM |  |  |  |  |  |  |  |  |  | 
18 | CCOC(=O)CCC(=O)C1c2cccc(O)c2C(=O)c2c(O)cccc21 | 2.24 µM | 1.9 µM | 3.09 µM | 2.26 µM | 1.86 µM | > 100 µM | 1.48 µM | 0.657 µM |  | 2.08 µM |  |  |  |  |  |  |  |  |  | 
19 | COc1cc(-c2nc3ccc(C)cc3[nH]2)ccc1OCC(=O)N=Nc1c(O)[nH]c2ccccc12 | 2.37 µM | 3.56 µM | 3.48 µM | 3.21 µM | 3.25 µM |  | 96.4 µM |  | > 100 µM | 3.17 µM | 1.65 µM | 0.769 µM | 1.84 µM | 1.81 µM |  | 12.5 µM |  | 4.18 µM | 1.71 µM | 1.75 µM
20 | O=c1ccn(C2OC(CO)C(O)C2O)c(=O)[nH]1 (stereo not given) | > 1000 µM | > 1000 µM | > 1000 µM | > 1000 µM | > 1000 µM | > 1000 µM |  | > 1000 µM | > 1000 µM | > 1000 µM | > 1000 µM | > 1000 µM |  | > 1000 µM | > 1000 µM |  | > 1000 µM | > 1000 µM | > 1000 µM | > 1000 µM
